Test results taken from the NIST ThermoML archive (doi:10.1021/je0601457).

Assay: xn = mol fraction of the nth substance listed

Cc1cnccn1 [2-methylpyrazine] + O=C=O
Liquid, linear displacement
Conditions	mass density [kg/m3]
348.65 K, x1 = 0.624	875
349.45 K, x1 = 0.122	770
349.75 K, x1 = 0.062	660
351.35 K, x1 = 0.857	878
355.05 K, x1 = 0.339	914
355.15 K, x1 = 0.156	799
358.25 K, x1 = 0.091	656
365.65 K, x1 = 0.122	707
371.75 K, x1 = 0.857	858
375.55 K, x1 = 0.156	745
375.75 K, x1 = 0.264	746
376.65 K, x1 = 0.624	845
387.35 K, x1 = 0.339	891

Fluid (supercritical or subcritical phases), Linear displacement technique
Conditions	mass density [kg/m3]
349.45 K, 14100 kPa, x1 = 0.122	787
349.45 K, 15520 kPa, x1 = 0.122	810
349.45 K, 16310 kPa, x1 = 0.122	824
349.45 K, 18790 kPa, x1 = 0.122	852
349.75 K, 14100 kPa, x1 = 0.062	691
349.75 K, 15100 kPa, x1 = 0.062	722
351.15 K, 13970 kPa, x1 = 0.081	778
351.15 K, 14720 kPa, x1 = 0.081	780
351.15 K, 16720 kPa, x1 = 0.081	783
351.35 K, 3760 kPa, x1 = 0.857	878
351.35 K, 7000 kPa, x1 = 0.857	882
351.35 K, 11210 kPa, x1 = 0.857	888
351.35 K, 17340 kPa, x1 = 0.857	893
352.75 K, 14140 kPa, x1 = 0.039	495
352.75 K, 14790 kPa, x1 = 0.039	525
352.75 K, 15410 kPa, x1 = 0.039	543
355.05 K, 11030 kPa, x1 = 0.339	918
355.05 K, 14660 kPa, x1 = 0.339	927
355.05 K, 17280 kPa, x1 = 0.339	939
355.15 K, 13690 kPa, x1 = 0.156	808
355.15 K, 14590 kPa, x1 = 0.156	821
355.15 K, 16930 kPa, x1 = 0.156	843
358.25 K, 15690 kPa, x1 = 0.091	696
358.25 K, 16450 kPa, x1 = 0.091	714
358.25 K, 17690 kPa, x1 = 0.091	743
358.25 K, 19210 kPa, x1 = 0.091	767
358.25 K, 20690 kPa, x1 = 0.091	787
365.65 K, 17000 kPa, x1 = 0.122	746
365.65 K, 18100 kPa, x1 = 0.122	769
365.65 K, 19170 kPa, x1 = 0.122	786
369.15 K, 15970 kPa, x1 = 0.091	633
369.15 K, 16660 kPa, x1 = 0.091	659
369.15 K, 17340 kPa, x1 = 0.091	681
369.15 K, 18100 kPa, x1 = 0.091	701
369.15 K, 19000 kPa, x1 = 0.091	721
371.75 K, 4380 kPa, x1 = 0.857	861
371.75 K, 8450 kPa, x1 = 0.857	865
371.75 K, 15830 kPa, x1 = 0.857	875
371.75 K, 28450 kPa, x1 = 0.857	889
374.25 K, 14030 kPa, x1 = 0.033	346
374.25 K, 14550 kPa, x1 = 0.033	367
374.25 K, 15000 kPa, x1 = 0.033	384
374.25 K, 16240 kPa, x1 = 0.033	425
374.55 K, 17210 kPa, x1 = 0.081	740
374.55 K, 19210 kPa, x1 = 0.081	768
374.75 K, 16100 kPa, x1 = 0.062	592
374.75 K, 16720 kPa, x1 = 0.062	626
374.75 K, 16970 kPa, x1 = 0.062	639
375.55 K, 16790 kPa, x1 = 0.156	765
375.55 K, 18100 kPa, x1 = 0.156	789
375.55 K, 19970 kPa, x1 = 0.156	811
375.75 K, 17000 kPa, x1 = 0.264	758
375.75 K, 20720 kPa, x1 = 0.264	778
375.75 K, 24590 kPa, x1 = 0.264	797
376.35 K, 14860 kPa, x1 = 0.039	367
376.35 K, 15760 kPa, x1 = 0.039	406
376.65 K, 7970 kPa, x1 = 0.624	846
376.65 K, 10970 kPa, x1 = 0.624	852
376.65 K, 14930 kPa, x1 = 0.624	859
376.65 K, 19340 kPa, x1 = 0.624	864
379.45 K, 17410 kPa, x1 = 0.091	598
379.45 K, 20340 kPa, x1 = 0.091	675
379.45 K, 21900 kPa, x1 = 0.091	705
379.45 K, 24210 kPa, x1 = 0.091	731
387.35 K, 15480 kPa, x1 = 0.339	899
387.35 K, 18070 kPa, x1 = 0.339	912
387.35 K, 22790 kPa, x1 = 0.339	933
